Values of other authors, collected in patent US20200367542A1, “AROMA COMPOSITION” (SYMRISE AG, priority 2017, published 2020).

How the values were obtained:
[1] = J. Chem. Senses 1979, 4(1), 35-47
[2] = purity>90%, in soft drinks

| Compound | Taste described in the publication [1] | Concentration to achieve a sweetness corresponding to a concentration of sucrose of 10% by weight [2] |
| --- | --- | --- |
| COc1ccc(CCC(=O)c2ccccc2O)cc1O [dihydrochalcone (2)] | intensively sweet tasting | – |
| COc1ccc(CCC(=O)c2c(O)cccc2O)cc1O [dihydrochalcone (3)] | tasteless | – |
| C=C1C[C@@]23CC[C@H]4[C@@](C)(CCC[C@@]4(C)C(=O)O[C@@H]4O[C@H](CO)[C@@H](O)[C@H](O)[C@H]4O)[C@@H]2CC[C@]1(O[C@@H]1O[C@H](CO)[C@@H](O)[C@H](O[C@@H]2O[C@H](CO)[C@@H](O)[C@H](O)[C@H]2O)[C@H]1O[C@@H]1O[C@H](CO)[C@@H](O)[C@H](O)[C@H]1O)C3 [rebaudioside A] | – | 400-600 ppm |
